This note sets out measurements from paper PMC10475101, “Selective steroidogenic cytochrome P450 haem iron ligation by steroid-derived isonitriles” (Communications Chemistry, 2023).

The data set addresses CYP106A2 (Priestia megaterium, UniProt Q06069). Briefly: Absorbance difference spectra titration of CYP106A2. In kind it is binding, bacterial. The note with it: 1 µM CYP106A2. The procedure:
Fig. 5 CYP106A2 interaction with steroidal isonitriles. […] Maximum concentration of 2 (light blue trace) is 20 µM. […] Maximum concentration of 4 is ~10 µM (blue trace). C Overlay of 800 MHz ^1H,^15N-TROSY-HSQC spectra of ^15N-Gly-labeled CYP106A2 with levopimaric acid p-benzoquinone Diels-Alder adduct bound after reduction with sodium dithionite and treatment with carbon monoxide (red), or with 7,17-(bis)isonitrile 4 (blue) after anaerobic reduction with sodium dithionite.

Sequence of CYP106A2 (Q06069 whole entry): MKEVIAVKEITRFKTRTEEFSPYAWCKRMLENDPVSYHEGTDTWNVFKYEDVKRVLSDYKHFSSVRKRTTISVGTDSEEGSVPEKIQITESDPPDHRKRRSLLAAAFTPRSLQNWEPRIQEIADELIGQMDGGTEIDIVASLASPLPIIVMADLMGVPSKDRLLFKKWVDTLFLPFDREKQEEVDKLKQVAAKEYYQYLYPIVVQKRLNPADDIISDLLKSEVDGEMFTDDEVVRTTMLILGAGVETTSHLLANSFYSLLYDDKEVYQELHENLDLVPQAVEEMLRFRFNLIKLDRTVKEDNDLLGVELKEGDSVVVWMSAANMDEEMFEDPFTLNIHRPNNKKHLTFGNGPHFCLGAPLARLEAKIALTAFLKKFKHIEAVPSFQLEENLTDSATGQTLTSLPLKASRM

With `[C-]#[N+][C@H](C)[C@H]1CC[C@H]2[C@@H]3CC[C@H]4C[C@@H](OC=O)CC[C@]4(C)[C@H]3CC[C@]12C` [Compound 1, 3β-formyl-5α-pregnanolone-(R)-20-isonitrile], the “spectral response / binding mode on CYP106A2” value was “does not cause spectral perturbation”. Further, the “spectral response / binding mode on CYP106A2” value (listed as 20-(R)-1) is listed as “no evidence for formation of a Fe—C bonded complex”.
